Data reported in patent US12065436B2, “Cardiac sarcomere inhibitors” (Cytokinetics, Inc., priority 2018, dated 2024).
pIC50: −log10 of the molar value.

Biological target: bovine cardiac myofibrils (full-length cardiac myosin ATPase in the native sarcomere) (Bos taurus (Bovine), UniProt Q9BE39)
Test: Skinned bovine cardiac myofibril ATPase assay (PK/LDH-coupled)
Assay type: biochemical
Settings: Ca2+ activating to 75% of maximal rate; for CDMF75 IC15: concentration giving 15% inhibition; for pIC50: read-out: CDMF75 IC50
In short: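 Inhibition of steady-state ATPase read at 340 nm through a PK/LDH-coupled NADH system (0.5 mM NADH, 1.5 mM PEP). Detergent-skinned bovine cardiac myofibrils, 1 mg/mL, were tested at pH 6.8 in PIPES/MgCl2 with 50 μM ATP and calcium adjusted to give pCa50 or pCa75 activation.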

Sequence of bovine cardiac myofibrils (full-length cardiac myosin ATPase in the native sarcomere) (Q9BE39 whole entry): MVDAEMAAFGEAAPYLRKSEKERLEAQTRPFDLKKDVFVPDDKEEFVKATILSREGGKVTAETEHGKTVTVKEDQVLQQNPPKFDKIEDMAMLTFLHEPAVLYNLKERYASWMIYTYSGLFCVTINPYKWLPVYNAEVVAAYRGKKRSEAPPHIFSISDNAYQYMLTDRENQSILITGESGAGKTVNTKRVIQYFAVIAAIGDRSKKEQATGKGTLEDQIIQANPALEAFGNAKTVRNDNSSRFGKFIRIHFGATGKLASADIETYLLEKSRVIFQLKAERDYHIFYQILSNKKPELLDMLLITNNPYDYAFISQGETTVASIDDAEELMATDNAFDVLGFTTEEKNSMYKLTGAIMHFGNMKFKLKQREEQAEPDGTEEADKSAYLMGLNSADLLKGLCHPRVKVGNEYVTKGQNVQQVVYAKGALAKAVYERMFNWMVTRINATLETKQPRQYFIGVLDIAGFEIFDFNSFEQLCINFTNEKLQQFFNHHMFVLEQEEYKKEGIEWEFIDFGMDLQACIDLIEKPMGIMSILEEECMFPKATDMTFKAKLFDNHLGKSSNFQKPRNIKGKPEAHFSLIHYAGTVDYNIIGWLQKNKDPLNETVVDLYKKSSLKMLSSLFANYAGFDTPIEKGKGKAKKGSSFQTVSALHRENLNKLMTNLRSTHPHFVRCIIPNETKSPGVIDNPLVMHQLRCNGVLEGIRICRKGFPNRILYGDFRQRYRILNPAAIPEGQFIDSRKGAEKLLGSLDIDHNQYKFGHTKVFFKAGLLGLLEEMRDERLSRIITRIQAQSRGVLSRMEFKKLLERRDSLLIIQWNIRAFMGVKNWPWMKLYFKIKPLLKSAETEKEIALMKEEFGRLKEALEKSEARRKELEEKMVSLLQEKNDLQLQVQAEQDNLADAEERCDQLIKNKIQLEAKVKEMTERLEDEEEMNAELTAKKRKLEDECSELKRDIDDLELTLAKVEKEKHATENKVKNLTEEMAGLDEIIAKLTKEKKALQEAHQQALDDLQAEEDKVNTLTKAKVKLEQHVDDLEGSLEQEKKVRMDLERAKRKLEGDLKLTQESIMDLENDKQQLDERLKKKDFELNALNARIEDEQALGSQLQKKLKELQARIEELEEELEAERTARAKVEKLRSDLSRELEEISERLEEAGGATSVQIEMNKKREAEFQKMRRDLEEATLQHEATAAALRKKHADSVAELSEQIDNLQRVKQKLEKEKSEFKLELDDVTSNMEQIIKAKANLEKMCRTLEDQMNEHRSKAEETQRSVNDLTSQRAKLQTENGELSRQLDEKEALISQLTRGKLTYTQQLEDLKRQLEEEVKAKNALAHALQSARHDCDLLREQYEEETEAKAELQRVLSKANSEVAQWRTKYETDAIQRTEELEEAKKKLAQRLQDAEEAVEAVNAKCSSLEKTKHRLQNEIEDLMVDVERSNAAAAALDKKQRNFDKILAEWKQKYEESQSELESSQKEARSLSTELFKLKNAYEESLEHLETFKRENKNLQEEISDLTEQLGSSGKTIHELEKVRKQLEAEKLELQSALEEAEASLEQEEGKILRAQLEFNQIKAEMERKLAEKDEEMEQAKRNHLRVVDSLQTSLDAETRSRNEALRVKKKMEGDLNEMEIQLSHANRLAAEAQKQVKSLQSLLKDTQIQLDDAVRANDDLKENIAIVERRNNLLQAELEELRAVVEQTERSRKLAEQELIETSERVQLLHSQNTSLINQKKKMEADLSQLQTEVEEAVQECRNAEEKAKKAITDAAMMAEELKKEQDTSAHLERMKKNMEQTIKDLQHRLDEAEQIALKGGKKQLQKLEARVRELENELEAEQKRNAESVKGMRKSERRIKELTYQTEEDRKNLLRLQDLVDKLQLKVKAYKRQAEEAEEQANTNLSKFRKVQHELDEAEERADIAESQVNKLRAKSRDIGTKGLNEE
Sequence of bovine cardiac myofibrils (full-length cardiac myosin ATPase in the native sarcomere) (P85100 whole entry partner): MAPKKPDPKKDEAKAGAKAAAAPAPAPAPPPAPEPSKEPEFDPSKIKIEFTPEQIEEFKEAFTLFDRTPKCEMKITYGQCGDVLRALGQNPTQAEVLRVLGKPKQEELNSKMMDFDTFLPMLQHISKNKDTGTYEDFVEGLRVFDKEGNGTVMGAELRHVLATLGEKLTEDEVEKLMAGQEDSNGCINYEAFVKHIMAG
Sequence of bovine cardiac myofibrils (full-length cardiac myosin ATPase in the native sarcomere) (Q3SZE5 whole entry partner): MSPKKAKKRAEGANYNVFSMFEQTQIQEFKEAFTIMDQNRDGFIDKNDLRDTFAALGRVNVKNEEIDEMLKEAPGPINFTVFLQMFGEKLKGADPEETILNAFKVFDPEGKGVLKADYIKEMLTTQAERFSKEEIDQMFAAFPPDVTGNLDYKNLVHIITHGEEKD

Row | CDMF75 IC15 [µM] | pIC50 | Compound
1 | 0.9 | 5.46 | Cc1ncc(C(=O)N[C@@H]2CCc3cc(-c4noc(C5CCC5)n4)ccc32)o1 [Compound 410, (R)-N-(5-(5-cyclobutyl-1,2,4-oxadiazol-3-yl)-2,3-dihydro-1H-inden-1-yl)-2-methyloxazole-5-carboxamide]
2 | 0.5 | 5.74 | Cc1cc(C(=O)N[C@@H]2CCc3cc(-c4noc(C5CCC5)n4)ccc32)ccn1 [Compound 412, (R)-N-(5-(5-cyclobutyl-1,2,4-oxadiazol-3-yl)-2,3-dihydro-1H-inden-1-yl)-2-methylisonicotinamide]
3 | 0.4 | 5.82 | CCc1cc(-c2ccc3c(c2)CC[C@H]3NC(=O)c2cnn(C)c2)no1 [Compound 413, (R)-N-(5-(5-ethylisoxazol-3-yl)-2,3-dihydro-1H-inden-1-yl)-1-methyl-1H-pyrazole-4-carboxamide]
4 | 0.2 | 6.22 | CCc1cc(-c2ccc3c(c2)CC[C@H]3NC(=O)c2ccnn2C)no1 [Compound 414, (R)—N-(5-(5-ethylisoxazol-3-yl)-2,3-dihydro-1H-inden-1-yl)-1-methyl-1H-pyrazole-5-carboxamide]
5 | 0.5 | 5.77 | CCc1cc(-c2ccc3c(c2)CC[C@H]3NC(=O)c2cnc(C)o2)no1 [Compound 415, (R)-N-(5-(5-ethylisoxazol-3-yl)-2,3-dihydro-1H-inden-1-yl)-2-methyloxazole-5-carboxamide]
6 | 1.2 | 5.38 | Cc1cc(-c2ccc3c(c2)CC[C@H]3NC(=O)c2cnc(C)o2)no1 [Compound 416, (R)-2-methyl-N-(5-(5-methylisoxazol-3-yl)-2,3-dihydro-1H-inden-1-yl)oxazole-5-carboxamide]
7 | 0.2 | 6.22 | CCc1cc(-c2ccc3c(c2)CC[C@H]3NC(=O)c2ocnc2C)no1 [Compound 417, (R)-N-(5-(5-ethylisoxazol-3-yl)-2,3-dihydro-1H-inden-1-yl)-4-methyloxazole-5-carboxamide]
8 | 0.3 | 5.92 | Cc1cc(-c2ccc3c(c2)CC[C@H]3NC(=O)c2ocnc2C)no1 [Compound 418, (R)-4-methyl-N-(5-(5-methylisoxazol-3-yl)-2,3-dihydro-1H-inden-1-yl)oxazole-5-carboxamide]
9 | 1.2 | 5.33 | CC(=O)N[C@@H]1CCc2cc(-c3noc(C4CC4)n3)ccc21 [Compound 419, (R)-N-(5-(5-cyclopropyl-1,2,4-oxadiazol-3-yl)-2,3-dihydro-1H-inden-1-yl)acetamide]
10 | 0.3 | 6.10 | CCc1cc(-c2ccc3c(c2)OC[C@H]3NC(=O)c2ccnn2C)no1 [Compound 421, (S)-N-(6-(5-ethylisoxazol-3-yl)-2,3-dihydrobenzofuran-3-yl)-1-methyl-1H-pyrazole-5-carboxamide]
11 | 0.4 | 5.82 | CCc1cc(-c2ccc3c(c2)OC[C@H]3NC(=O)c2cnc(C)o2)no1 [Compound 422, (S)-N-(6-(5-ethylisoxazol-3-yl)-2,3-dihydrobenzofuran-3-yl)-2-methyloxazole-5-carboxamide]
12 | 0.3 | 5.92 | CCc1cc(-c2ccc3c(c2)OC[C@H]3NC(=O)c2cnn(C)c2)no1 [Compound 423, (S)—N-(6-(5-ethylisoxazol-3-yl)-2,3-dihydrobenzofuran-3-yl)-1-methyl-1H-pyrazole-4-carboxamide]
13 | 0.2 | 6.22 | CCc1cc(-c2ccc3c(c2)OC[C@H]3NC(=O)c2ocnc2C)no1 [Compound 424, (S)-N-(6-(5-ethylisoxazol-3-yl)-2,3-dihydrobenzofuran-3-yl)-4-methyloxazole-5-carboxamide]
14 | 0.3 | 5.92 | CCc1cc(-c2ccc3c(c2)OC[C@H]3NC(=O)c2ccnc(C)c2)no1 [Compound 425, (S)-N-(6-(5-ethylisoxazol-3-yl)-2,3-dihydrobenzofuran-3-yl)-2-methylisonicotinamide]
15 | 0.8 | 5.59 | Cc1cc(-c2ccc3c(c2)OC[C@H]3NC(=O)c2cnn(C)c2)no1 [Compound 426, (S)-1-methyl-N-(6-(5-methylisoxazol-3-yl)-2,3-dihydrobenzofuran-3-yl)-1H-pyrazole-4-carboxamide]
16 | 0.5 | 5.80 | Cc1cc(-c2ccc3c(c2)OC[C@H]3NC(=O)c2ccnn2C)no1 [Compound 427, (S)-1-methyl-N-(6-(5-methylisoxazol-3-yl)-2,3-dihydrobenzofuran-3-yl)-1H-pyrazole-5-carboxamide]
17 | 1.0 | 5.47 | Cc1cc(-c2ccc3c(c2)OC[C@H]3NC(=O)c2cnc(C)o2)no1 [Compound 428, (S)-2-methyl-N-(6-(5-methylisoxazol-3-yl)-2,3-dihydrobenzofuran-3-yl)oxazole-5-carboxamide]

Row | CDMF75 IC15 [µM] | pIC50 | Compound
18 | 0.5 | 5.82 | Cc1cc(-c2ccc3c(c2)OC[C@H]3NC(=O)c2ocnc2C)no1 [Compound 429, (S)-4-methyl-N-(6-(5-methylisoxazol-3-yl)-2,3-dihydrobenzofuran-3-yl)oxazole-5-carboxamide]
19 | 1.0 | 5.49 | Cc1cc(C(=O)N[C@@H]2COc3cc(-c4cc(C)on4)ccc32)ccn1 [Compound 430, (S)-2-methyl-N-(6-(5-methylisoxazol-3-yl)-2,3-dihydrobenzofuran-3-yl)isonicotinamide]
20 | 0.3 | 6.05 | CCc1cc(-c2ccc3c(c2)CC[C@H]3NC(=O)c2cn[nH]c2C)no1 [Compound 431, (R)—N-(5-(5-ethylisoxazol-3-yl)-2,3-dihydro-1H-inden-1-yl)-5-methyl-1H-pyrazole-4-carboxamide]
21 | 0.8 | 5.60 | Cc1cc(-c2ccc3c(c2)CC[C@H]3NC(=O)c2cn[nH]c2C)no1 [Compound 432, (R)-5-methyl-N-(5-(5-methylisoxazol-3-yl)-2,3-dihydro-1H-inden-1-yl)-1H-pyrazole-4-carboxamide]
22 | 2.6 | 4.95 | Cc1nc(-c2ccc3c(c2)CC[C@H]3NC(=O)C(F)F)no1 [Compound 435, (R)-2,2-difluoro-N-(5-(5-methyl-1,2,4-oxadiazol-3-yl)-2,3-dihydro-1H-inden-1-yl)acetamide]
23 | 0.6 | 5.68 | CCc1nc(-c2ccc3c(c2)CC[C@H]3NC(=O)C(F)F)no1 [Compound 436, (R)-N-(5-(5-ethyl-1,2,4-oxadiazol-3-yl)-2,3-dihydro-1H-inden-1-yl)-2,2-difluoroacetamide]
24 | 8.8 | 4.46 | COCc1nc(-c2ccc3c(c2)CC[C@H]3NC(=O)C(F)F)no1 [Compound 437, (R)-2,2-difluoro-N-(5-(5-(methoxymethyl)-1,2,4-oxadiazol-3-yl)-2,3-dihydro-1H-inden-1-yl)acetamide]
25 | 3.7 | 4.80 | CC(C)c1nc(-c2ccc3c(c2)CC[C@H]3NC(=O)C(F)F)no1 [Compound 438, (R)-2,2-difluoro-N-(5-(5-isopropyl-1,2,4-oxadiazol-3-yl)-2,3-dihydro-1H-inden-1-yl)acetamide]
26 | 1.1 | 5.32 | O=C(N[C@@H]1CCc2cc(-c3noc(C4CC4)n3)ccc21)C(F)F [Compound 439, (R)-N-(5-(5-cyclopropyl-1,2,4-oxadiazol-3-yl)-2,3-dihydro-1H-inden-1-yl)-2,2-difluoroacetamide]
27 | 2.7 | 4.97 | O=C(N[C@@H]1CCc2cc(-c3noc(C4CCC4)n3)ccc21)C(F)F [Compound 440, (R)-N-(5-(5-cyclobutyl-1,2,4-oxadiazol-3-yl)-2,3-dihydro-1H-inden-1-yl)-2,2-difluoroacetamide]
28 | 3.4 | 4.86 | O=C(N[C@@H]1COc2cc(-c3noc(C(F)F)n3)ccc21)C(F)F [Compound 441, (S)-N-(6-(5-(difluoromethyl)-1,2,4-oxadiazol-3-yl)-2,3-dihydrobenzofuran-3-yl)-2,2-difluoroacetamide]
29 | 2.5 | 4.90 | [2H]C([2H])([2H])c1nc(-c2ccc3c(c2)CC[C@H]3NC(=O)C(F)F)no1 [Compound 442, (R)-2,2-difluoro-N-(5-(5-(methyl-d3)-1,2,4-oxadiazol-3-yl)-2,3-dihydro-1H-inden-1-yl)acetamide]
30 | 0.7 | 5.59 | CCc1nc(-c2ccc3c(c2)OC[C@H]3NC(C)=O)no1 [Compound 443, (S)-N-(6-(5-ethyl-1,2,4-oxadiazol-3-yl)-2,3-dihydrobenzofuran-3-yl)acetamide]
31 | 1.6 | 5.10 | CC(=O)N[C@@H]1COc2cc(-c3noc(C(F)F)n3)ccc21 [Compound 444, (S)-N-(6-(5-(difluoromethyl)-1,2,4-oxadiazol-3-yl)-2,3-dihydrobenzofuran-3-yl)acetamide]
32 | 0.8 | 5.52 | [2H]C([2H])([2H])C(=O)N[C@@H]1COc2cc(-c3noc(CC)n3)ccc21 [Compound 445, (S)-N-(6-(5-ethyl-1,2,4-oxadiazol-3-yl)-2,3-dihydrobenzofuran-3-yl)acetamide-2,2,2-d3]
33 | 0.7 | 5.59 | [2H]C([2H])([2H])C(=O)N[C@@H]1CCc2cc(-c3noc(CC)n3)ccc21 [Compound 446, (R)-N-(5-(5-ethyl-1,2,4-oxadiazol-3-yl)-2,3-dihydro-1H-inden-1-yl)acetamide-2,2,2-d3]
34 | 1.8 | 5.03 | [2H]C([2H])([2H])C(=O)N[C@@H]1COc2cc(-c3noc(C(F)F)n3)ccc21 [Compound 447, (S)-N-(6-(5-(difluoromethyl)-1,2,4-oxadiazol-3-yl)-2,3-dihydrobenzofuran-3-yl)acetamide-2,2,2-d3]
